The values that follow come from ChEMBL document CHEMBL1914389, “Steroidal C-21 mercapto derivatives as dissociated steroids: discovery of an inhaled dissociated steroid” (Bioorg Med Chem Lett, 2011).

The test system of series [1] is Rattus norvegicus. Put plainly: Antiinflammatory activity in intratracheal insufflated allergen challenged Brown-Norway rat assessed as inhibition of inflammatory cell influx administered as single dose. Conditions: inhaled or nasal. It counts as functional.
For series [2], the system named is Rattus norvegicus. Put plainly: Toxicity in ip dosed Brown-Norway rat assessed as decrease in adrenal weight administered for 3 days. It counts as organism-based. Conditions: in vivo, 72 h.
Series [3] concerns the target T1, Glucocorticoid receptor (Homo sapiens) (UniProt P04150).
T1 sequence (whole entry): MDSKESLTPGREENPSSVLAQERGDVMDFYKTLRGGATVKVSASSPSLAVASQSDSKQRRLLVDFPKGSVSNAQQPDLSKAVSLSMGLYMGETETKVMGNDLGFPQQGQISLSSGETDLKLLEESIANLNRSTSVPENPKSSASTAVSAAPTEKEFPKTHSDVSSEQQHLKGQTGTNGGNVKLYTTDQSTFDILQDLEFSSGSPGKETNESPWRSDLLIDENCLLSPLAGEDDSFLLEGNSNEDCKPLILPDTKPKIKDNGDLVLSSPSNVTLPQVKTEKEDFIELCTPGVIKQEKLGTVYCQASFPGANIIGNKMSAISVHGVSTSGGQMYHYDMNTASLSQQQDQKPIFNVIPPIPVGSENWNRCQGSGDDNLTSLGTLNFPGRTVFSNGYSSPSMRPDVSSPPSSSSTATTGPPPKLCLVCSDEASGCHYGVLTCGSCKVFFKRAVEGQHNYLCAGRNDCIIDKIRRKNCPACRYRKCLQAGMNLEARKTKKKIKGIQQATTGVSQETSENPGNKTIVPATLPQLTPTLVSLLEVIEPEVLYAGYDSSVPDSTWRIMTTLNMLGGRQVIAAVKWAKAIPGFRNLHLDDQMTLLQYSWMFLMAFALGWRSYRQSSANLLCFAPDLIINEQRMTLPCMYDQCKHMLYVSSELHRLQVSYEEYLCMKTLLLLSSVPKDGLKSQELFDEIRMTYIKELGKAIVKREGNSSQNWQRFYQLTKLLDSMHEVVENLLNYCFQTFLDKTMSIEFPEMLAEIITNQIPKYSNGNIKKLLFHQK
The series can be described thus: Transactivation activity at glucocorticoid receptor in human HepG2 cells assessed as induction of tyrosine amino transferase at 1 uM relative to control. The series is classed as cell-based.

Series [4] relates to Rattus norvegicus. Put plainly: Antiinflammatory activity in ovalbumin-challenged Brown-Norway rat assessed as improvement in lung function administered via nose as dry powder inhalation once a day for 3 days. It counts as functional. Conditions: inhaled or nasal, 72 h.
For series [5], the target named is T1, Glucocorticoid receptor (Homo sapiens). Put plainly: Transrepression activity at glucocorticoid receptor in human H292 cells assessed as inhibition of TNF-stimulated IL-6 cytokine synthesis at 1 uM relative to control. The series is classed as cell-based.
Series [6] relates to Rattus norvegicus. Put plainly: Induction of thymolysis in ovalbumin-challenged Brown-Norway rat administered via nose inhalation. It counts as organism-based. Conditions: in vivo, inhaled_or_intranasal.
Series [7] addresses T2, Glucocorticoid receptor (Rattus norvegicus) (UniProt P06536).
T2 sequence (whole entry): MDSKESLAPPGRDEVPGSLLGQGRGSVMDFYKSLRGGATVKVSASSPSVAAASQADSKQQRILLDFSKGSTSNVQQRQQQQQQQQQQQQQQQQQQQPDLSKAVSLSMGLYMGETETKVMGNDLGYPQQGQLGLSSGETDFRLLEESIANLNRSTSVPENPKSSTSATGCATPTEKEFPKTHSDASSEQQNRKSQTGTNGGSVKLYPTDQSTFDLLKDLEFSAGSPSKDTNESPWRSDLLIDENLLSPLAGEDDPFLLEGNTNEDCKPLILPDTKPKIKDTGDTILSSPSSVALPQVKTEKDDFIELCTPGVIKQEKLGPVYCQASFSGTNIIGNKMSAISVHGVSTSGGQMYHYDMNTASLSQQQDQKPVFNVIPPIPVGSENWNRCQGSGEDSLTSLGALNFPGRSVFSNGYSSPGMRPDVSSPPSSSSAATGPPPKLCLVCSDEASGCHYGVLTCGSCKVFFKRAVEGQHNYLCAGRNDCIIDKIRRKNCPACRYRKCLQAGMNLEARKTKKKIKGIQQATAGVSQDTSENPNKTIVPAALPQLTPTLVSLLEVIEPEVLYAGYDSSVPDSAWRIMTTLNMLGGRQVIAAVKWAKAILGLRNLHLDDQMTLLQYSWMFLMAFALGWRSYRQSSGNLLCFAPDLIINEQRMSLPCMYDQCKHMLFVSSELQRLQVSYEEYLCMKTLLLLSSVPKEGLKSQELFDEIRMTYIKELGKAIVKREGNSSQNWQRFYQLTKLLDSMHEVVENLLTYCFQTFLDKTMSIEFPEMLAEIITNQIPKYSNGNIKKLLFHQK
The series can be described thus: Transactivation activity at glucocorticoid receptor in rat H4II-E cells assessed as induction of tyrosine amino transferase at 1 uM relative to control. It counts as cell-based.

Series [8] relates to Rattus norvegicus. The series can be described thus: Toxicity in ip dosed Brown-Norway rat assessed as decrease in thymus weight administered for 3 days. The series is classed as organism-based. Conditions: in vivo, 72 h.
In series [9] the test system is Rattus norvegicus. The series can be described thus: Toxicity in ip dosed Brown-Norway rat assessed as decrease in body weight administered for 3 days. The series is classed as organism-based. Conditions: in vivo, 72 h.
Series [10] relates to Rattus norvegicus. Put plainly: Antiinflammatory activity in allergen challenged Brown-Norway rat assessed as inhibition of total BAL cell administered via nose as dry powder. It counts as functional.
Series [11] deals with T3, Glucocorticoid receptor (Homo sapiens, UniProt P04150).
T3 sequence (P04150 whole entry): T1 sequence (whole entry)
The series can be described thus: Transrepression activity at glucocorticoid receptor in human H292 cells assessed as inhibition of TNF-stimulated IL-6 cytokine synthesis. The series is classed as cell-based.

In series [12] the target is T1, Glucocorticoid receptor (Homo sapiens). The series can be described thus: Transactivation activity at glucocorticoid receptor in human HepG2 cells expressing luciferase-taggged GRE gene at 1 uM by luciferase reporter gene assay relative to control. It counts as cell-based. On the technique in general: Reporter assays use an easily measured gene product as a stand-in for the process of interest.

Another series relates to Lung. Put plainly: Drug uptake in lung of Brown-Norway rat. It counts as ADME, tissue-based. Conditions: in vivo.
Series [13] addresses T3, Glucocorticoid receptor. Put plainly: Inhibition of human glucocorticoid receptor.
Series [14] in a line: AUC in rat at 10 mg/kg, po. The series is classed as ADME, organism-based. Also on record: dose 10 mg/kg, route oral. Conditions: plasma.
For series [15], the species on record is Rattus norvegicus. The series can be described thus: Ratio of fluticasone propionate TI to compound TI in ovalbumin-challenged Brown-Norway rat.
In series [16] the test system is Rattus norvegicus. The series can be described thus: Induction of thymolysis in ovalbumin-challenged Brown-Norway rat at upto 730 ug/kg administered via nose inhalation. Conditions: in vivo, 0.73 mg/kg. It counts as organism-based.
The nature of series [17]: Therapeutic index, ratio of ED20 for thymolysis to ED70 for forced vital capacity in ovalbumin-challenged Brown-Norway rat. It counts as organism-based. Conditions: in vivo, read-out: TI.

For `CCC(=O)O[C@]1(C(=O)SCF)[C@H](C)C[C@H]2[C@@H]3C[C@H](F)C4=CC(=O)C=C[C@]4(C)[C@@]3(F)[C@@H](O)C[C@@]21C` [FLUTICASONE PROPIONATE], the ED50 with Rattus norvegicus [1] amounted to 0.14 mg/kg; with Rattus norvegicus [2], 0.52 mg/kg; in the series with Rattus norvegicus [8], 0.14 mg/kg; in the series with Rattus norvegicus [9] it was 0.34 mg/kg. In addition, the Emax in series [3] is 113%; in series [5], 99%; in [7], 110%. In the series on Rattus norvegicus [4], the ED70 was 0.021 mg/kg. In the series with Rattus norvegicus [6], the ED20 came to 0.023 mg/kg.

In the case of `C[C@]12CCC(=O)C=C1CC[C@@H]1[C@@H]2[C@@H](O)C[C@@]2(C)[C@H]1CC[C@]2(O)C(=O)CSc1nc2ccccc2s1`, the ED50 with Rattus norvegicus [1] was 0.42 mg/kg; in the series on Rattus norvegicus [2], over 100 mg/kg; with Rattus norvegicus [8] it was over 100 mg/kg; in the series with Rattus norvegicus [9], over 100 mg/kg. The “inhibition (INH)” value with Rattus norvegicus [10] came to 27%. Further, the maximal response (Emax) in series [3] turned out to be 5%; in series [5], 97%; in [12], 30%; in series [7] it was 0%. The IC50 was found to be 36 nM at Glucocorticoid receptor [11] and 4.8 nM against Glucocorticoid receptor [13]. In the series on Lung, this compound gave a Drug uptake of 85 µg/kg.

On to `C[C@]12CCC(=O)C=C1CC[C@@H]1[C@@H]2[C@@H](O)C[C@@]2(C)[C@H]1CC[C@]2(OC(=O)c1ccco1)C(=O)CSc1nc2ccccc2s1`, for which the maximum response (Emax) in series [3] was determined as 5%; in series [5] it was 100%; in series [7], 2%. This compound also showed an AUC in series [14] of 7 ng·h/mL. In addition, the IC50 at Glucocorticoid receptor [11] was 2 nM. Further, the Ratio in the series filed under Rattus norvegicus [15] is recorded as 10. Moreover, the Activity result with Rattus norvegicus [16] is on record as “>= 20%”. Also, the selectivity ratio in series [17] was over 15.

The ED50 is the midpoint of the dose-response relation. The Emax is the maximal effect, on the per cent scale that the assay sets. Broadly, the IC50 is the concentration that inhibits the measured activity by half. As a reminder, the AUC is the area under the concentration-time curve, a measure of exposure. Low readings indicate low exposure, high ones high exposure.
